In patent publication US20230355622A1, “METHODS OF CHEMOVACCINATION AGAINST PLASMODIUM INFECTIONS” (Merck Sharp & Dohme LLC, priority 2020, published 2023):

Key:
PMIX = assay: Cleavage of PMIX substrates RAP1 and ASP in parasite extracts; format: cell-based, P. falciparum
Experimental: To confirm that Example 1A was a dual inhibitor of PMIX and PMX function, the ability of this compound to inhibit cleavage of the known PMIX substrate Rhoptry Associated Protein 1 (RAPI) in parasite extracts was tested (Pino et al., 2017). RAP1 is a merozoite rhoptry protein that is localized to the parasitophorous vacuole after invasion and processed by both PMIX and SUB1 (Pino et al., 2017). […] RAP1 was not released into the parasite supernatant because it was deposited in the parasitophorous vacuole during the invasion process (Baldi, D., Andrews, K., Waller, R., Roos, D., Howard, R., Crabb, B. and Cowman, A. (2000)). RAP1 controls rhoptry targeting of RAP2 in the malaria parasite Plasmodium falciparum. Embo Journal 19, 2435-2443.

PbmCherryLuci [1] = assay: Prime/boost immunisation of C57BL/6 mice with CD8 depletion before mosquito bite challenge (FIG. 4); format: in vivo, Plasmodium berghei; details: C57BL/6, prime/boost with 2 x 100 mg/kg P.O., 10 mosquito bites ten weeks after boost
Experimental: In addition to these protective antibody responses, the contribution of CD8 T-cells to the mechanism of immune protection was tested. Female C57BL/6 mice were immunized using a prime/boost immunisation regimen. The first immunisation was with 40,000 PbmCherryLuci salivary gland sporozoites i.v. followed by two doses of Example 1A at 100 mg/kg P.O. (given at 36 and 48 hours post infection). The second immunisation (boost) was eight weeks later, this time with 20,000 PbmCherryLuci sporozoites but with Example IA treatment as for the prime immunisation. Ten weeks after the boost immunisation (eighteen weeks after the prime immunisation) the mice were injected with 150 μg of a CD8 depleting antibody, or an isotype control non-depleting antibody the day before the mice were challenged with the bites of 10 PbmCherryLuci infected mosquitoes for 15 minutes. Giemsa stained thin blood smears were analysed until 30 days after challenge for the presence of parasites in the blood and mice were considered to be protected from infection if no blood parasites were observed within the 30 days post […].

PbmCherryLuci [2] = assay: Rechallenge of chemo-protected mice by mosquito bite infection at 6 and 12 months (FIG. 2A, 2B); format: in vivo, Plasmodium berghei; details: 15 infected mosquito bites
Excerpt: Previously chemo-protected mice were rechallenged with PbmCherryLuci 6 months later by mosquito bite infection. […] In both experiments naïve, sex matched control mice all became infected as expected. Thus in addition to chemoprotection, Example IA could possibly act as a chemovaccination to protect against future infections for one year or more.

In the case of CCC1(CC)CC(=O)N(C2CCOc3ccc(C(=O)N[C@H]4CC(C)(C)Oc5ccccc54)cc32)C(=N)N1 (stereo partly drawn) [Example 1A, 4-(4,4-diethyl-2-imino-6-oxotetrahydropyrimidin-1(2H)-yl)-N—((S)-2,2-dimethylchroman-4-yl)chroman-6-carboxamide], the “RAP1 processing by PMIX and SUB1” value (PMIX; treated parasites/merozoites, processed forms p82 and p69, unprocessed p87) was “only the unprocessed p87 form of RAP1 was present”, the “Apical Sushi Protein (ASP) processing by PMIX” value (PMIX; treated parasites, p47 processed, p87 full-length) was “cleavage event was inhibited” and the “blood parasites after challenge” value (PbmCherryLuci [1]; 150 μg CD8 depleting antibody) was “all had blood parasites 4 days after challenge”. For the same molecule, the “blood parasites after challenge” value (PbmCherryLuci [1]; isotype control non-depleting antibody) was “negative for blood parasites throughout the 30-day observation period”, the “immunity to reinfection challenge” value (PbmCherryLuci [2]; rechallenge 6 months later) was “all mice were subsequently immune” and the “mice fully protected on rechallenge” value (PbmCherryLuci [2]; rechallenge 12 months after chemoprotection) was “Four of five mice were again fully protected”.
